Measured values published in PubChem BioAssay (NCI).
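These data come from cells grown in 96-well plates and exposed to compound for 48 hours at five concentrations. The concentration for 50% growth inhibition is given as GI50. At the TGI there is no net growth.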

What was measured:
Assay in all cases: growth of human tumour cells (NCI), 48 h
786-0 renal = test system: 786-0 renal
A498 renal = test system: A498 renal
A549 NSCLC = test system: A549 NSCLC
ACHN renal = test system: ACHN renal
BT-549 breast = test system: BT-549 breast
CAKI-1 renal = test system: CAKI-1 renal
CCRF-CEM leukemia = test system: CCRF-CEM leukemia
COLO 205 colon = test system: COLO 205 colon
EKVX NSCLC = test system: EKVX NSCLC
HCC-2998 colon = test system: HCC-2998 colon
HCT-116 colon = test system: HCT-116 colon
HCT-15 colon = test system: HCT-15 colon
HL-60(TB) leukemia = test system: HL-60(TB) leukemia
HOP-62 NSCLC = test system: HOP-62 NSCLC
HOP-92 NSCLC = test system: HOP-92 NSCLC
HS 578T breast = test system: HS 578T breast
HT29 colon = test system: HT29 colon
IGROV1 ovarian = test system: IGROV1 ovarian
K-562 leukemia = test system: K-562 leukemia
LOX IMVI melanoma = test system: LOX IMVI melanoma
M14 melanoma = test system: M14 melanoma
MALME-3M melanoma = test system: MALME-3M melanoma
MCF7 breast = test system: MCF7 breast
MDA-MB-231 breast = test system: MDA-MB-231 breast
MDA-MB-435 = test system: MDA-MB-435
MDA-MB-468 breast = test system: MDA-MB-468 breast
MOLT-4 leukemia = test system: MOLT-4 leukemia
NCI-H226 lung = test system: NCI-H226 lung
NCI-H23 lung = test system: NCI-H23 lung
NCI-H460 lung = test system: NCI-H460 lung
NCI-H522 lung = test system: NCI-H522 lung
OVCAR-3 ovarian = test system: OVCAR-3 ovarian
OVCAR-5 ovarian = test system: OVCAR-5 ovarian
OVCAR-8 ovarian = test system: OVCAR-8 ovarian
PC-3 prostate = test system: PC-3 prostate
RPMI-8226 leukemia = test system: RPMI-8226 leukemia
RXF 393 renal = test system: RXF 393 renal
SF-268 CNS = test system: SF-268 CNS
SF-295 CNS = test system: SF-295 CNS
SF-539 CNS = test system: SF-539 CNS
SK-MEL-2 melanoma = test system: SK-MEL-2 melanoma
SK-MEL-28 melanoma = test system: SK-MEL-28 melanoma
SK-MEL-5 melanoma = test system: SK-MEL-5 melanoma
SK-OV-3 ovarian = test system: SK-OV-3 ovarian
SN12C renal = test system: SN12C renal
SNB-19 CNS = test system: SNB-19 CNS
SNB-75 CNS = test system: SNB-75 CNS
SR leukemia = test system: SR leukemia
SW-620 colon = test system: SW-620 colon
T-47D breast = test system: T-47D breast
TK-10 renal = test system: TK-10 renal
U251 CNS = test system: U251 CNS
UACC-257 melanoma = test system: UACC-257 melanoma
UACC-62 melanoma = test system: UACC-62 melanoma
UO-31 renal = test system: UO-31 renal

## C=C1CC[C@@H]2[C@]3(C)COC(c4cn(-c5ccccc5)nc4-c4ccccc4)O[C@@H]3CC[C@@]2(C)[C@@H]1C/C=C1/C(=O)OC[C@H]1O (stereo not given in full)
786-0 renal
  GI50: 2030 nM
  TGI: 4470 nM
A498 renal
  GI50: 2340 nM
  TGI: 6470 nM
A549 NSCLC
  GI50: 2490 nM
  TGI: 7110 nM
ACHN renal
  GI50: 1640 nM
  TGI: 3050 nM
BT-549 breast
  GI50: 1640 nM
  TGI: 3160 nM
CAKI-1 renal
  GI50: 1860 nM
  TGI: 4810 nM
CCRF-CEM leukemia
  GI50: 590 nM
  TGI: 3370 nM
COLO 205 colon
  GI50: 2010 nM
  TGI: 3570 nM
EKVX NSCLC
  GI50: 2070 nM
  TGI: 4650 nM
HCC-2998 colon
  GI50: 1680 nM
  TGI: 3110 nM
HCT-116 colon
  GI50: 1610 nM
  TGI: 3550 nM
HCT-15 colon
  GI50: 1720 nM
  TGI: 3450 nM
HL-60(TB) leukemia
  GI50: 2320 nM
  TGI: 7460 nM
HOP-62 NSCLC
  GI50: 1870 nM
  TGI: 3840 nM
HOP-92 NSCLC
  GI50: 1530 nM
  TGI: 2990 nM
HS 578T breast
  GI50: 2310 nM
  TGI: 6540 nM
HT29 colon
  GI50: 2370 nM
  TGI: 6770 nM
IGROV1 ovarian
  GI50: 1770 nM
  TGI: 3440 nM
K-562 leukemia
  GI50: 2970 nM
  TGI: > 100000 nM
LOX IMVI melanoma
  GI50: 1540 nM
  TGI: 3000 nM
M14 melanoma
  GI50: 1810 nM
  TGI: 3620 nM
MALME-3M melanoma
  GI50: 1730 nM
  TGI: 3180 nM
MCF7 breast
  GI50: 2000 nM
  TGI: 9090 nM
MDA-MB-231 breast
  GI50: 1720 nM
  TGI: 3250 nM
MDA-MB-435
  GI50: 1860 nM
  TGI: 4190 nM
MDA-MB-468 breast
  GI50: 1690 nM
  TGI: 3340 nM
MOLT-4 leukemia
  GI50: 1970 nM
  TGI: > 100000 nM
NCI-H226 lung
  GI50: 1950 nM
  TGI: 4310 nM
NCI-H23 lung
  GI50: 1690 nM
  TGI: 3080 nM
NCI-H460 lung
  GI50: 1660 nM
  TGI: 3350 nM
NCI-H522 lung
  GI50: 1900 nM
  TGI: 3860 nM
OVCAR-3 ovarian
  GI50: 1820 nM
  TGI: 3350 nM
OVCAR-5 ovarian
  GI50: 1860 nM
  TGI: 4020 nM
OVCAR-8 ovarian
  GI50: 1810 nM
  TGI: 5310 nM
PC-3 prostate
  GI50: 1950 nM
  TGI: 4700 nM
RPMI-8226 leukemia
  GI50: 2020 nM
  TGI: 8620 nM
RXF 393 renal
  GI50: 1400 nM
  TGI: 2840 nM
SF-268 CNS
  GI50: 3200 nM
  TGI: 20500 nM
SF-295 CNS
  GI50: 1640 nM
  TGI: 3050 nM
SF-539 CNS
  GI50: 1840 nM
  TGI: 3260 nM
SK-MEL-2 melanoma
  GI50: 1740 nM
  TGI: 3540 nM
SK-MEL-28 melanoma
  GI50: 1770 nM
  TGI: 3380 nM
SK-MEL-5 melanoma
  GI50: 1400 nM
  TGI: 2700 nM
SK-OV-3 ovarian
  GI50: 4750 nM
  TGI: 18700 nM
SN12C renal
  GI50: 1870 nM
  TGI: 3960 nM
SNB-19 CNS
  GI50: 1850 nM
  TGI: 3780 nM
SNB-75 CNS
  GI50: 1360 nM
  TGI: 3900 nM
SR leukemia
  GI50: 3790 nM
  TGI: > 100000 nM
SW-620 colon
  GI50: 1730 nM
  TGI: 3680 nM
T-47D breast
  GI50: 1420 nM
  TGI: 3470 nM
TK-10 renal
  GI50: 1780 nM
  TGI: 3390 nM
U251 CNS
  GI50: 1840 nM
  TGI: 3710 nM
UACC-257 melanoma
  GI50: 1900 nM
  TGI: 3800 nM
UACC-62 melanoma
  GI50: 1650 nM
  TGI: 3200 nM
UO-31 renal
  GI50: 1350 nM
  TGI: 2690 nM
